Source: the NIST ThermoML archive (doi:10.1016/j.jct.2009.04.001)

Assay: xn = mol fraction of the nth substance listed
Conditions: for surface tension liquid-gas: Pendant drop shape; for mass density: 101 kPa, Liquid, Vibrating tube method

COCCOC [1,2-dimethoxyethane] + Cc1ccccc1C
Conditions	mass density [kg/m3]	surface tension liquid-gas [mN/m]
298.15 K, x1 = 0.0995	874.01	29.05
298.15 K, x1 = 0.1998	872.89	28.28
298.15 K, x1 = 0.3003	871.73	27.6
298.15 K, x1 = 0.4004	870.51	27.08
298.15 K, x1 = 0.4998	869.24	26.63
298.15 K, x1 = 0.6001	867.86	26.2
298.15 K, x1 = 0.7008	866.37	25.78
298.15 K, x1 = 0.7996	864.86	25.37
298.15 K, x1 = 0.8992	863.22	24.96
298.15 K, x1 = 0.95	862.34	24.64
298.15 K, x1 = 1	861.36	24.27
303.15 K, x1 = 0.0996	869.77	28.45
303.15 K, x1 = 0.1997	868.64	27.73
303.15 K, x1 = 0.3007	867.45	27.08
303.15 K, x1 = 0.3997	866.2	26.61
303.15 K, x1 = 0.5001	864.88	26.19
303.15 K, x1 = 0.6012	863.46	25.78
303.15 K, x1 = 0.7009	861.98	25.37
303.15 K, x1 = 0.7988	860.43	25
303.15 K, x1 = 0.8998	858.74	24.53
303.15 K, x1 = 0.9498	857.85	24.17
303.15 K, x1 = 1	856.8	23.73
308.15 K, x1 = 0.0998	865.45	27.92
308.15 K, x1 = 0.2005	864.2	27.23
308.15 K, x1 = 0.3003	862.9	26.61
308.15 K, x1 = 0.4009	861.51	26.17
308.15 K, x1 = 0.4991	860.07	25.77
308.15 K, x1 = 0.5995	858.53	25.39
308.15 K, x1 = 0.7013	856.88	24.99
308.15 K, x1 = 0.7991	855.2	24.58
308.15 K, x1 = 0.9008	853.35	24.07
308.15 K, x1 = 0.9503	852.39	23.66
308.15 K, x1 = 1	851.24	23.16

Cc1ccccc1C [1,2-dimethylbenzene] + COCCOC
x2 = 0
Conditions	mass density [kg/m3]	surface tension liquid-gas [mN/m]
298.15 K	875.09	29.86
303.15 K	870.86	29.18
308.15 K	866.64	28.61

Cc1ccc(C)cc1 [1,4-dimethylbenzene] + COCCOC
x2 = 0
Conditions	mass density [kg/m3]	surface tension liquid-gas [mN/m]
298.15 K	856.95	28.11
303.15 K	852.61	27.59
308.15 K	848.27	27.07
